Source: the NIST ThermoML archive (doi:10.1021/je7003758)

Conditions: Liquid

CN1CCCC1=O [N-methylpyrrolidone]
mass density [kg/m3]
Conditions | 288.15 K | 298.15 K | 308.15 K | 318.15 K
100 kPa | 1036.8 | 1028 | 1019.3 | 1011
500 kPa | 1036.9 | 1028.1 | 1019.5 | 1011.1
1000 kPa | 1037.2 | 1028.4 | 1019.8 | 1011.4
1500 kPa | 1037.4 | 1028.7 | 1020 | 1011.7
2000 kPa | 1037.7 | 1028.9 | 1020.3 | 1012.1
2500 kPa | 1037.9 | 1029.2 | 1020.6 | 1012.4
3000 kPa | 1038.2 | 1029.4 | 1020.9 | 1012.7
3500 kPa | 1038.4 | 1029.7 | 1021.1 | 1012.9
4000 kPa | 1038.7 | 1030 | 1021.4 | 1013.2
4500 kPa | 1038.9 | 1030.2 | 1021.6 | 1013.5
5000 kPa | 1039.2 | 1030.5 | 1021.8 | 1013.8
5500 kPa | 1039.4 | 1030.7 | 1022.2 | 1014
5900 kPa | – | 1031 | – | –
6000 kPa | 1039.6 | – | 1022.4 | 1014.4
6400 kPa | – | – | 1022.6 | –
6500 kPa | 1039.9 | 1031.3 | – | 1014.6
6900 kPa | – | 1031.5 | – | –
7000 kPa | 1040.2 | – | – | 1014.9
7100 kPa | – | – | 1023 | –
7500 kPa | 1040.4 | 1031.8 | 1023.1 | 1015.2
8000 kPa | 1040.7 | 1032 | – | 1015.5
8100 kPa | – | – | 1023.5 | –
8500 kPa | 1041 | 1032.3 | 1023.7 | 1015.8
9000 kPa | 1041.2 | 1032.5 | 1024 | 1016
9500 kPa | 1041.4 | – | 1024.3 | 1016.3
9600 kPa | – | 1032.9 | – | –
10000 kPa | 1041.7 | 1033.1 | 1024.6 | 1016.6
10400 kPa | – | – | 1024.8 | –
10500 kPa | 1042 | 1033.3 | – | 1016.9
11000 kPa | 1042.2 | 1033.6 | – | 1017.3
11100 kPa | – | – | 1025.1 | –
11400 kPa | – | – | – | 1017.6
11500 kPa | 1042.5 | 1033.8 | 1025.3 | –
12000 kPa | – | 1034.1 | 1025.5 | 1017.8
12100 kPa | 1042.7 | – | – | –
12500 kPa | 1042.9 | 1034.3 | 1025.8 | 1018
12900 kPa | – | – | – | 1018.3
13000 kPa | 1043.1 | 1034.6 | 1026 | –
13500 kPa | 1043.4 | 1034.8 | 1026.3 | 1018.5
14000 kPa | 1043.6 | 1035.1 | 1026.5 | 1018.8
14400 kPa | – | 1035.3 | – | –
14500 kPa | 1043.8 | – | 1026.8 | 1019.1
14900 kPa | – | 1035.5 | – | –
15000 kPa | 1044.1 | – | 1027 | 1019.4
15500 kPa | 1044.3 | 1035.8 | 1027.3 | 1019.7
16000 kPa | 1044.5 | 1036 | 1027.5 | 1019.9
16500 kPa | 1044.8 | 1036.3 | 1027.7 | 1020.2
17000 kPa | 1045 | 1036.5 | 1028 | 1020.4
17500 kPa | 1045.2 | 1036.7 | 1028.3 | 1020.7
17900 kPa | – | 1037 | – | –
18000 kPa | 1045.4 | – | 1028.5 | 1021
18500 kPa | – | 1037.2 | 1028.7 | 1021.3
18600 kPa | 1045.7 | – | – | –
19000 kPa | 1046 | 1037.4 | 1029 | 1021.5
19500 kPa | 1046.2 | 1037.7 | 1029.2 | –
19600 kPa | – | – | – | 1021.9
20000 kPa | 1046.4 | 1037.9 | 1029.4 | 1022
